From PubChem BioAssay (NCI)
Where “and” joins values, the source holds several entries; their conditions need not be identical. Equal entries are not always repeated.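 Protocol summary: plate cells (96-well), add compound at 5 concentrations, incubate 48 h, interpolate endpoints linearly. GI50: concentration for 50% inhibition of growth. TGI: total growth inhibition.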

Legend:
Assay in all cases: NCI-60 cell line screen, 48 h; in the data active = GI50 below about 0.43 µM; inactive = the rest
[1] = tested on: 786-0 renal
[2] = tested on: CCRF-CEM leukemia
[3] = tested on: HOP-62 NSCLC
[4] = tested on: IGROV1 ovarian
[5] = tested on: SF-539 CNS
[6] = tested on: SK-MEL-28 melanoma
[7] = tested on: SK-MEL-5 melanoma
[8] = tested on: SN12C renal
[9] = tested on: SNB-19 CNS
[10] = tested on: SR leukemia

Cc1ccc(NC(c2ccccc2)c2ccc3cccnc3c2O)cc1 (centres undefined)
20 µM: TGI [9]
14.4 µM: TGI [10]
19.9 µM: TGI [3]
33.3 µM: TGI [6]
4.27 µM: TGI [2]
8.18 µM: TGI [5]
14 µM: TGI [4]
15.4 µM: TGI [7]
15.1 µM: TGI [1]
22.4 µM: TGI [8]

Cc1[nH]c(=O)[nH]c(=O)c1N(CCF)CCCl
1870 µM: TGI [10]
480 µM and 641 µM and 1020 µM: TGI [8]
478 µM and 1680 µM and 768 µM: TGI [5]
inactive: GI50 [2] 96 µM and 48.4 µM | GI50 [3] 439 µM | GI50 [4] 284 µM | GI50 [5] 499 µM and 153 µM | GI50 [6] 256 µM and 494 µM | GI50 [7] 388 µM | GI50 [8] 159 µM and 120 µM and 312 µM | GI50 [9] 711 µM and 250 µM
394 µM and 788 µM and 699 µM: TGI [7]
1160 µM and 2500 µM and 1820 µM: TGI [9]
589 µM and 1140 µM and 711 µM: TGI [6]
793 µM and 1260 µM and 1270 µM: TGI [4]
872 µM and 1100 µM and 1150 µM: TGI [3]
796 µM and 626 µM and 791 µM: TGI [2]
1470 µM: TGI [1]

CN(C)c1ccc(-c2cc(=O)c3ccccc3[nH]2)cc1
> 100 µM: TGI [1] | TGI [2] | TGI [3] | TGI [4] | TGI [5] | TGI [6] | TGI [8] | TGI [9] | TGI [10]

COc1nc2c(OC)cccc2c(OC)c1C=O
> 100 µM: TGI [1] | TGI [2] | TGI [3] | TGI [4] | TGI [5] | TGI [6] | TGI [7] | TGI [8] | TGI [9]

COc1ccc(CN2C(=O)/C(=C\c3cc(OC)c(OC)c(OC)c3)c3cc(OC)ccc32)cc1
inactive: GI50 [1] 2.29 µM | GI50 [2] 3.4 µM | GI50 [3] 2.37 µM | GI50 [4] 1.8 µM | GI50 [5] 1.86 µM | GI50 [6] 1.72 µM | GI50 [7] 3.09 µM | GI50 [8] 3.53 µM | GI50 [9] 3 µM
9.41 µM: TGI [7]
4.06 µM: TGI [4]
> 39.4 µM: TGI [8]
5.07 µM: TGI [1]
> 100 µM: TGI [2]
3.3 µM: TGI [6]
10.7 µM: TGI [9]
3.76 µM: TGI [5]
4.89 µM: TGI [3]

O=P(c1ccccc1)(c1ccccc1)C1CC=C(c2ccccc2)C2(CCCC2)C1 (centres undefined)
> 100 µM: TGI [1] | TGI [2] | TGI [4] | TGI [5] | TGI [6] | TGI [7] | TGI [8] | TGI [9]

O=C1NC(=O)C(C(=O)C(=O)Nc2ccc(Br)cc2)C(=O)N1
> 100 µM: TGI [1] | TGI [2] | TGI [4] | TGI [5] | TGI [6] | TGI [7] | TGI [8] | TGI [9] | TGI [10]

O=C1c2ccccc2-c2c1c1ccccc1c(=O)n2Cc1ccco1
> 100 µM: TGI [1] | TGI [2] | TGI [3] | TGI [4] | TGI [5] | TGI [6] | TGI [7] | TGI [8] | TGI [10]

Oc1cccc2c1NC1=C(CCC/C1=C\c1ccccc1)C2
> 100 µM: TGI [1] | TGI [2] | TGI [3] | TGI [4] | TGI [5] | TGI [6] | TGI [7] | TGI [9] | TGI [10]

COc1ccc2[nH]cc(CCNC(C)=O)c2c1
> 100 µM: TGI [1] | TGI [2] | TGI [3] | TGI [4] | TGI [5] | TGI [6] | TGI [7] | TGI [8] | TGI [9]

O=S(=O)([O-])[O-].[OH3+].[OH3+].[OH3+].[Ru+2].c1ccccc1
inactive: GI50 [1] > 100 µM | GI50 [2] > 100 µM | GI50 [4] > 100 µM | GI50 [5] > 100 µM | GI50 [6] > 100 µM | GI50 [7] > 100 µM | GI50 [8] > 100 µM | GI50 [9] > 100 µM
> 100 µM: TGI [1] | TGI [2] | TGI [4] | TGI [5] | TGI [6] | TGI [7] | TGI [8] | TGI [9]

O=C1C=CC(=O)c2c1ccc1c3ccccc3n(-c3ccccn3)c21
> 100 µM: TGI [2] | TGI [6] | TGI [8]
28.5 µM: TGI [1]
68.2 µM: TGI [5]

Nc1ccccc1C#CC#Cc1ccccc1N
31.4 µM: TGI [8]
17.9 µM: TGI [7]
inactive: GI50 [1] 13.2 µM | GI50 [3] 15.9 µM | GI50 [4] 18.6 µM | GI50 [6] 48 µM | GI50 [7] 4.36 µM | GI50 [8] 14.7 µM | GI50 [9] > 100 µM
86.2 µM: TGI [4]
69.8 µM: TGI [10]
27 µM: TGI [1]
> 100 µM: TGI [6] | TGI [9]
29.9 µM: TGI [3]

COc1ccc(OCC(=O)O)c2c1CCC(C(C)C)C2=O (centres undefined)
> 100 µM: TGI [1] | TGI [2] | TGI [3] | TGI [4] | TGI [5] | TGI [6] | TGI [7] | TGI [9]

COC(=O)c1c[nH]cc1CCc1c[nH]cc1C(=O)OC
> 100 µM: TGI [1] | TGI [2] | TGI [3] | TGI [4] | TGI [5] | TGI [6] | TGI [8] | TGI [9] | TGI [10]

CCN1C(=O)C/C(=C\C(C)=O)Nc2ccccc21
> 100 µM: TGI [1] | TGI [2] | TGI [3] | TGI [4] | TGI [5] | TGI [6] | TGI [9] | TGI [10]
> 31.6 µM: TGI [7]

CC(C)C(C(=O)O)N(CC1(O)OCC(O)C(O)C1O)N=O (centres undefined)
> 100 µM: TGI [1] | TGI [2] | TGI [3] | TGI [4] | TGI [5] | TGI [6] | TGI [7]

CCNc1nnc(CSc2nc(-c3ccccc3)c(-c3ccccc3)[nH]2)s1
> 100 µM: TGI [10]
35.7 µM: TGI [3]
40.3 µM: TGI [2]
34 µM: TGI [9]
24.1 µM: TGI [7]
56.5 µM: TGI [8]
33.2 µM: TGI [5]
56.6 µM: TGI [1]
36.1 µM: TGI [6]

C/C(=N\NC(=S)N1CCCCCC1)c1nccnc1C
12.2 µM: TGI [7]
1.65 µM: TGI [5]
> 100 µM: TGI [1] | TGI [3] | TGI [6] | TGI [8]

C=CC1(C)CCC(C(C)C(=O)C(C=C(C)C)OC(C)=O)C12C(=O)Oc1ccccc1C2=O (centres undefined)
> 100 µM: TGI [1] | TGI [2] | TGI [3] | TGI [4] | TGI [5] | TGI [6] | TGI [8] | TGI [9] | TGI [10]

CN(C)/[N+]([O-])=N/Oc1cc(Nc2cccc(C(=O)O)c2)c([N+](=O)[O-])cc1[N+](=O)[O-]
inactive: GI50 [1] > 100 µM | GI50 [3] 32.2 µM | GI50 [4] 41.1 µM | GI50 [5] > 100 µM | GI50 [6] > 100 µM | GI50 [7] 81.4 µM | GI50 [8] > 100 µM | GI50 [9] 53.6 µM | GI50 [10] 43.9 µM
> 100 µM: TGI [1] | TGI [3] | TGI [4] | TGI [5] | TGI [6] | TGI [7] | TGI [8] | TGI [9] | TGI [10]
